Test results as given in patent US20260295059A1, “BROAD-SPECTRUM ANTIBIOTIC HYBRIDS FOR THE TREATMENT OF MULTI-DRUG RESISTANT INFECTIONS” (priority 2023, published 2026).
Where a SMILES comes first, the peptide text is derived from it. Bridges are numbered along the chain shown (N, C = ends). [ ]: non-standard residue; d: D form. The star is where a group is joined. ξ: configuration not given here. Decanoyl(3R-OH) = CCCCCCC[C@@H](O)CC(=O)*; Decanoyl = CCCCCCCCCC(=O)*; dDab = NCC[C@@H](N)C(=O)O; Dab = NCC[C@H](N)C(=O)O; ξDab = NCCC(N)C(=O)O

How the values were obtained:
P. aeruginosa [1] = assay: Activity against challenge panel of 207 P. aeruginosa isolates (MIC50/MIC90); type: cell-based; conditions: Pseudomonas aeruginosa
Experimental: (§1) Dry Powder Formulation and in vivo Efficacy of UOM-001 and UOM-005 in a Lung Infection Model. […] The activity of DPI UOM-001 and comparator antibiotics was assessed against a challenge panel consisting of 207 P. aeruginosa isolates collected from different parts of the world; 105 isolates were enriched for resistance against β-lactam/β-lactamase inhibitor combinations (Table 6). […] The teixobactin-lipopeptide hybrids have a labile linker between the two antibiotic components that allows for sustained release of each component at the infection site simultaneously, thereby targeting their synergistic activity. Whereas the individual components when administered together likely display different disposition, uptake, and elimination characteristics, and therefore become diffusely distributed from each other, resulting in the loss of antibacterial synergy. […] In contrast, following intravenous administration of an identical dose, the ELF concentration of UOM-001 was below the limit of quantification (0.1 μg/mL). […] Pulmonary surfactant is a primary component of the ELF which can bind antibiotics that can impede the antibacterial activity of the drug. The binding of UOM-001 and teixobactin (5 mg/L for 4 h 37° C.) to lung surfactant or its individual components was determined by ultracentrifugation and LC-MS (FIG. 5C). The low binding of UOM-001 to lung surfactant is consistent with its good efficacy in the lung infection model. The effect of surfactant on the in vitro antibacterial activity of UOM-001 was assessed with the use of three polymyxin-resistant P. aeruginosa cystic fibrosis isolates. Beractant (Survanta™; Abbott Laboratories) served as the pulmonary surfactant. Beractant is a bovine-derived surfactant containing 25 mg/mL phospholipids. Although its composition differs slightly from that of human surfactant, it is functionally equivalent. For surfactant testing, the bacterial growth medium was supplemented with 10% beractant (=2.5 mg/mL). Since the surfactant produces turbidity, the minimum bactericidal concentration (MBC) was used to compare potency of UOM-001 in the absence or presence of surfactant. The MBCs of UOM-001 (0.125-0.5 mg/L) were not affected even when tested with the highest concentrations of surfactant (2.5 mg/mL, 10%).

[2] = tested on: P. aeruginosa FADDI-PA021m; assay: MIC against polymyxin-resistant cystic fibrosis isolate FADDI-PA021m; type: cell-based
[3] = tested on: P. aeruginosa FADDI-PA021m; assay: Static time-kill study, FADDI-PA021m; type: cell-based; conditions: native teixobactin or polymyxin B (MICs >128 mg/L)
P. aeruginosa [4] = assay: MIC determination, P. aeruginosa strains; type: cell-based; conditions: 11 PDR P. aeruginosa strains
Source text: (§2) Agents Chemother. 61; Rao et al. (2016) J. Antimicrob. Chemother. 71:3148-3156; Sharma et al. (2017) Int. J. Antimicrob. Agents 49:224-232). Subsequently, this SAR-based design strategy has been expanded to include teixobactins conjugated via labile and non-labile linkers to the polymyxin-lipopeptides (e.g., polymyxin B nonapeptide, FADDI-002 and octapeptin C4) (Velkov et al. (2018) Cell Chem. Biol. 25:380-391 e385; Velkov et al. (2013) Future Microbiol. 8:711-724; Velkov et al. (2014) ACS Chem. Biol. 9:1172-1177; Velkov et al. (2010) J. Med. Chem 53:1898-1916), which generated potent teixobactin lipopeptide hybrids active against teixobactin-resistant PDR Gram-negative ‘superbugs’ (Table 4).

A. baumannii = assay: MIC determination, A. baumannii strains; type: cell-based; conditions: 4 PDR A. baumannii strains
Source text: as §2

S. aureus = assay: MIC determination, S. aureus strains; type: cell-based; conditions: 3 PDR S. aureus strains
Source text: as §2

PDR P. aeruginosa = assay: Activity against challenge panel of 207 P. aeruginosa isolates (MIC50/MIC90); type: cell-based; conditions: P. aeruginosa (n = 207)
Experimental: as §1

pulmonary infections = conditions: 230 critically-ill patients, cited from earlier work
Gram-negative bacteria = assay: Antibacterial activity against Gram-negative bacteria; type: cell-based
Source text: (§3) Polymyxin lipopeptides can act as powerful potentiators for FDA-approved non-antibiotic drugs, by permeabilizing the Gram-negative outer membrane, allowing the non-antibiotic drug to enter the bacterial cell and reach its intracellular targets (Hussein et al. (2018) Comput. Struct. Biotechnol. J. 16:587-599; Hussein et al. (2017) Microbiol. Drug Resist. 23:640-650; Jasim et al. (2017) J. Biomed. Nanotechnol. 13:447-457; Schneider et al. (2016) ACS Infect. Dis. 2:478-488; Tran et al. (2018) Front. Pharmacol. 9:359; Tran et al. (2018) Front. Microbiol. 9:721; Schneider et al. (2017) Essays Biochem. 61:115-125; Diep et al. (2017) Antimicrob. Agents Chemother. 61; Rao et al. (2016) J. Antimicrob. Chemother. 71:3148-3156; Sharma et al. (2017) Int. J. Antimicrob. Agents 49:224-232).

Gram-positive bacteria = assay: Antibacterial activity against Gram-positive bacteria; type: cell-based
Source text: as §3

Row | Molecule | MIC50 (P. aeruginosa [1]) [µg/mL] | MIC90 (P. aeruginosa [1]) [µg/mL] | MIC50 (PDR P. aeruginosa) [µg/mL] | MIC90 (PDR P. aeruginosa) [µg/mL] | also measured
1 | C[C@H]1COc2c(N3CCN(C)CC3)c(F)cc3c(=O)c(C(=O)O)cn1c23 [LEVO, levofloxacin] | 8 | > 16 |  |  | 
2 | NCC[C@H](O)C(=O)N[C@@H]1C[C@H](N)[C@@H](O[C@H]2O[C@H](CN)[C@@H](O)[C@H](O)[C@H]2O)[C@H](O)[C@H]1O[C@H]1O[C@H](CO)[C@@H](O)[C@H](N)[C@H]1O [AMK, amikacin] | 16 | > 32 |  |  | 
3 | polymyxin B |  |  |  |  | MIC [2]: > 128 µg/mL; killing [3]: no killing was observed
4 | colistin |  |  | 1 | 1 | colistin MIC (PDR strains) (P. aeruginosa [4]): 8 to 128 µg/mL; colistin MIC (PDR strains) (A. baumannii): 8 to 128 µg/mL; colistin MIC (PDR strains) (S. aureus): >128 µg/mL; efficacy of parenteral colistin for pulmonary infections (pulmonary infections): disappointing; exposure of colistin at the infection site (pulmonary infections; parenteral, pulmonary infections): very limited exposure at the infection site
5 | gentamicin [GNT] |  |  | 8 | >16 | 
6 | piperacillin-tazobactam [PIP-TAZ] |  |  | 64 | >128 | 
7 | C[C@@H](O)[C@H]1C(=O)N2C(C(=O)O)=C(S[C@@H]3CN[C@H](C(=O)N(C)C)C3)[C@H](C)[C@H]12 [MER, meropenem] | 16 | > 32 |  |  | 
8 | ceftazidime-avibactam [CAZ-AVI] |  |  | 2 | 8 | 
9 | CCCCCCCCCC(=O)N[C@H](CCN)C(=O)N[C@H]1CCNC(=O)[C@H](CC(C)C)NC(=O)[C@H](CCN)NC(=O)[C@H](CCN)NC(=O)[C@H](CC(C)C)NC(=O)[C@@H](Cc2ccccc2)NC(=O)[C@H](CCN)NC1=O [FADDI-115] (Decanoyl-[dDab][Dab][Dab][dF]L[Dab][Dab]L; lactam 2-C) |  |  |  |  | activity against Gram-negative bacteria (Gram-negative bacteria): potent activity; activity against Gram-positive bacteria (Gram-positive bacteria): potent activity
10 | CCCCCCC[C@@H](O)CC(=O)N[C@H](CCN)C(=O)NC1CCNC(=O)[C@H](CC(C)C)NC(=O)[C@H](CCN)NC(=O)[C@H](CCN)NC(=O)[C@H](CC(C)C)NC(=O)[C@@H](Cc2ccccc2)NC(=O)[C@H](CCN)NC1=O (stereo partly drawn) [octapeptin C4] ({Decanoyl(3R-OH)}-[dDab][ξDab][Dab][dF]L[Dab][Dab]L; lactam 2-C) |  |  |  |  | activity against Gram-negative bacteria (Gram-negative bacteria): potent activity; activity against Gram-positive bacteria (Gram-positive bacteria): potent activity
